PubChem BioAssay AID2305 (GlaxoSmithKline (GSK), 2010)

Each molecule was assayed on P. falciparum 3D7 growth, pLDH absorbance (assay: P. falciparum 3D7 growth inhibition, dose response, strain 3D7 (AID 2305)).
`Cc1cnc(N2CCN(CC3CCN(C)CC3)CC2)nc1Oc1ccc(-n2ccnc2)cc1` was tested, and the IC50 was 720 nM.
`CCOC(=O)c1cc(C(=O)NCCCCN2CCC(c3cn(C)c4ccccc34)CC2)ccc1-c1ccc(C(F)(F)F)cc1` showed an IC50 of 1200 nM.
Work on `COc1cc(Cc2cnc(N)nc2N)ccc1Oc1ccc(N)cc1` yielded an IC50 of 870 nM.
For `COc1ccc2nccc([C@@H](O)CN3CCC(NCc4ccc5cccc(O)c5n4)CC3)c2n1`, the IC50 was 910 nM.
`OC1CCC(Nc2ccc3ncc(-c4ccc(Cl)cc4)n3n2)CC1` (stereo not given) gave an IC50 of 820 nM.
Work on `Cc1ccc(C(NC(=O)C2CCCCC2)c2ccc3cccnc3c2O)cc1` (stereo not given) yielded an IC50 of 950 nM.
`Nc1cc(C=Cc2ccc([N+](=O)[O-])o2)nc2ccccc12` was tested, and the IC50 was 370 nM.
`CS(=O)(=O)c1ccc(-c2nc(NCC3CCCCC3)cc(C(F)(F)F)n2)cc1` showed an IC50 of 670 nM.
In the case of `CC(=O)Nc1nc(C(=O)Nc2cccc(-c3ccc(-c4nc5ccc(F)cc5[nH]4)cc3)c2)cs1`, the IC50 is reported as 290 nM.
Molecule `O=C(Nc1ccc(N2CCNCC2)cc1)c1ccn2ncc(-c3cccc(Cl)c3)c2n1` has an IC50 of 920 nM.
With `CC(C)c1cc(C(=O)N[C@@H](Cc2ccccc2)[C@H](O)CNC2CCCCC2)cc(N2CCCC2=O)c1` the IC50 was 120 nM.
In the case of `COC(=O)c1ccc(NC(=O)Nc2ccc(Cn3ncc(N4CCCNCC4)c(Cl)c3=O)cc2)cc1`, the IC50 is reported as 600 nM.
`CCN(CC)CCN(Cc1ccc(-c2ccc(C(F)(F)F)cc2)cc1)C(=O)Cn1c(CCc2cccc(F)c2F)nc(=O)c2ccc(C(F)(F)F)cc21` was tested, and the IC50 was 780 nM.
`FC(F)(F)c1ccc2c(NN=Cc3cccc(Cl)c3)ccnc2c1` gave an IC50 of 840 nM.
Molecule `COc1ccc(Nc2cc(C)c3cc(NC(=O)c4ccncc4)ccc3n2)cc1` has an IC50 of 910 nM.
`Cc1nc(-c2ccc(-c3ccc(C(=O)Nc4ccc(C(C)C)c(OCCN(C)C)c4)cc3)c(C)c2)no1` showed an IC50 of 870 nM.
With `CCN(CC)CCCC(C)Nc1c(-c2ccc(Br)cc2)cnc2ccccc12` (stereo not given) the IC50 was 700 nM.
Work on `O=C(NCCCCN1CCN(c2nsc3ccccc23)CC1)c1ccccc1C(=O)NCCCCN1CCN(c2nsc3ccccc23)CC1` yielded an IC50 of 890 nM.
With `Clc1ccc(-c2[nH]c3ccccc3c2CN2CCC(N3CCCCC3)CC2)cc1` the IC50 was 1060 nM.
Work on `CC(=NNC(=S)NCc1ccco1)c1ccccn1` yielded an IC50 of 250 nM.
`O=C(CN1CCN(C(C(=O)Nc2cc(C(F)(F)F)ccc2Cl)c2ccccc2)CC1)NC1CC1` (stereo not given) was tested, and the IC50 was 440 nM.
`NC(=NCC1CC1c1ccccc1)c1cccc(C(N)=NCC2CC2c2ccccc2)n1` (stereo not given) gave an IC50 of 1760 nM.
Molecule `COc1ccc(-c2ccc(NC(=O)c3ccc(Cl)cc3)cc2)cc1CN1CCCN(C)CC1` has an IC50 of 650 nM.
Molecule `CC1CCCCC1N(C)C1CCN(CCCNC(=O)C=Cc2ccc(Cl)cc2Cl)CC1` (stereo not given) has an IC50 of 650 nM.
In the case of `CC(C)CCN(Cc1cncn1Cc1ccccc1F)C(=O)c1cncc(-c2ccccc2)c1`, the IC50 is reported as 790 nM.
In the case of `Cc1cc(C(F)(F)F)n2nc(C3CCN(Cc4cc(C)c(O)c(C)c4)C3)cc2n1` (stereo not given), the IC50 is reported as 760 nM.
With `COc1cccc(C(=O)NCc2cccs2)c1OCc1ccccc1` the IC50 was 920 nM.
With `CCCCCCNC[C@@H](O)[C@H](Cc1ccccc1)NC(=O)c1cc(NCC)cc(N2CCCCS2(=O)=O)c1` the IC50 was 1000 nM.
`NC1CCN(Cc2ccc(-c3ccc(-c4nc5ccc(F)cc5[nH]4)s3)cc2)C1` (stereo not given) was tested, and the IC50 was 650 nM.
`Cc1c(Cl)cccc1S(=O)(=O)Nc1ccc(CCN2CCC(N)CC2)cc1` showed an IC50 of 1460 nM.
`C=CCN1C(=O)C(C(C)=O)=C(O)C1c1ccccc1` (stereo not given) was tested, and the IC50 was 50 nM.
With `O=C(NCc1ccc(F)cc1)c1ccc(N2CCN(c3ccncc3)CC2)cn1` the IC50 was 890 nM.
With `O=C(NC1CCCCC1)N(Cc1ccc(-c2ccc(CNCc3ccc4c(c3)OCO4)cc2)cc1)C1CCN(Cc2ccccc2)CC1` the IC50 was 690 nM.
In the case of `O=C(Nc1cccc(CN2CCCN(CCc3ccccc3)CC2)c1)c1cc2ccccc2s1`, the IC50 is reported as 1130 nM.
`Cn1nc(-c2ccc(NC(=O)Nc3cc(C(F)(F)F)ccc3F)cc2)c2cnc(NCCCCN3CCCC3)nc21` gave an IC50 of 530 nM.
For `Clc1ccc(-c2cnc3ccc(NCc4ccncc4)nn23)cc1`, the IC50 was 890 nM.
In the case of `CC(C)(C)c1ccccc1SC1=C(O)CC2(CCNCC2)OC1=O`, the IC50 is reported as 880 nM.
With `CC[C@@]1(O)C(=O)OCc2c1cc1n(c2=O)Cc2c-1nc1cc3c(cc1c2CN1CCOCC1)OCO3` the IC50 was 960 nM.
For `CC(C)c1ccc(NC(=O)Nc2ccc(Cn3ncc(N4CCCNCC4)c(Cl)c3=O)cc2)cc1`, the IC50 was 1050 nM.
With `O=C1OC2(CN1CC1CCN(Cc3ccc(O)c(Cl)c3)CC1)c1ccccc1-c1ccccc12` the IC50 was 760 nM.
In the case of `Cc1c(C)n(C2CCCC2)c2ncnc(OC3CCN(CC(=O)NCC4CC4)CC3)c12`, the IC50 is reported as 890 nM.
Work on `COc1cc2nc(N3CCC(CNCc4ccc(-c5ccc(C(F)(F)F)cc5)cc4)CC3)nc(N)c2cc1OC` yielded an IC50 of 90 nM.
Molecule `Cc1cc(NC(=O)c2cccs2)ccc1OC1CCN(Cc2ccccc2)C1` (stereo not given) has an IC50 of 890 nM.
`CCCCCCCn1c(=N)n(CC(O)c2ccc(Cl)c(Cl)c2)c2ccccc21` (stereo not given) showed an IC50 of 780 nM.
Work on `O=C(Nc1ccc(Cl)cn1)c1sc2ccccc2c1O` yielded an IC50 of 1040 nM.
Molecule `CN1CCN(c2ccc3nccc(CCN4CCC(NCc5ccc6c(n5)NC(=O)CO6)CC4)c3n2)CC1` has an IC50 of 820 nM.
Molecule `COc1cccc(CNC(=O)c2cc(CNCc3ccccc3)ccc2-c2cccc(CNCc3ccc(-c4ccccc4)cc3)c2)c1` has an IC50 of 850 nM.
`CCc1ccc(-n2c(=O)c3cccnc3n2CC(=O)NC2CCCC2)cc1` was tested, and the IC50 was 920 nM.
`Cc1cc(Nc2nc(Nc3cccc(Cl)c3)nc3ccccc23)n[nH]1` was tested, and the IC50 was 290 nM.
`CC(C)c1ccc(NC(=O)c2ccc(C(=O)NC3CCN(CC4CCCCC4)C3)cc2)cc1` (stereo not given) was tested, and the IC50 was 790 nM.
`CC(=O)N1N=C(c2[nH]c3ccc(Br)cc3c2C)OC1c1ccccc1` (stereo not given) gave an IC50 of 780 nM.
For `CC(C)CCN1CCCN(Cc2ccc(C(=O)Nc3ccc(C(C)(C)C)cc3)cc2)CC1`, the IC50 was 870 nM.
`CCCC(=O)NC(NC(=S)Nc1ccc([N+](=O)[O-])cc1)C(Cl)(Cl)Cl` (stereo not given) showed an IC50 of 1030 nM.
With `CN1CCC(N2CCN(CCOc3cc(NC(=O)/C=C/c4ccccc4Cl)ccc3Br)CC2)CC1` the IC50 was 360 nM.
`COc1cc2nc(N3CCC(CNC(=O)c4cc(Br)c(Br)s4)CC3)nc(N)c2cc1OC` was tested, and the IC50 was 710 nM.
For `COc1cc(NCCCNC(=O)c2cn(Cc3ccccc3)c3ccccc23)nc2ccccc12`, the IC50 was 870 nM.
`N#Cc1cncc(-c2nc3c(N4CCN(c5cnccn5)CC4)cccc3n2CCNCc2ccccc2)c1` was tested, and the IC50 was 910 nM.
`CC(C)OC(=O)c1ccc(NC(=O)N[C@@H](Cc2ccc(O)cc2)C(=O)NC2C[C@H]3CC[C@@H](C2)N3Cc2ccccc2)cc1` (stereo not given in full) gave an IC50 of 1080 nM.
With `Nc1nc(F)nc2nc[nH]c12` the IC50 was 430 nM.
`COC(=O)c1ccc(CC(C)NCC(O)c2cccc(C(F)(F)F)c2)cc1F` (stereo not given) was tested, and the IC50 was 1060 nM.
For `Oc1ccc(CCNc2nc(NCCCOc3ccccc3-c3ccncc3)nc(N3CCNCC3)n2)cc1`, the IC50 was 1110 nM.
In the case of `COc1ccc(C=NNc2cc(C)nc3ccc(C)cc23)c2ccccc12`, the IC50 is reported as 860 nM.
`CN(C)CC(=O)Nc1ccc(Nc2nccc(NCC(O)c3ccccc3)n2)cc1` (stereo not given) showed an IC50 of 970 nM.
`O=c1cc(NCCCNCc2ccccc2-c2ccccc2)[nH]c2ccccc12` showed an IC50 of 980 nM.
In the case of `Cc1cc(C2CCN(CCCCNC(=O)c3ccc(NC(=O)c4ccc(Cl)cc4)cc3)CC2)c(C)cc1OCc1ccccn1`, the IC50 is reported as 800 nM.
Work on `COC(=O)c1cccc(OCCNC2CCN(C[C@H](O)c3ccnc4ccc(OC)cc34)CC2)c1` yielded an IC50 of 340 nM.
`Cc1nnc(NC(=O)c2cn(-c3ccccc3)nc2-c2ccccc2C)o1` showed an IC50 of 560 nM.
Molecule `Cc1c(-c2ccc3c(c2)C(NCCCN2CCCCC2)CC3)cnc(N)c1C` (stereo not given) has an IC50 of 1110 nM.
In the case of `N#Cc1ccc2c(c1)CCN(CCC1CCC(NC(=O)c3cc4ccc(Cl)cc4[nH]3)CC1)C2` (stereo not given), the IC50 is reported as 700 nM.
Work on `COc1ccc(CCNCC(O)c2cccc(Br)c2)c(Cl)c1OC` (stereo not given) yielded an IC50 of 1040 nM.
`COc1ccc(Cl)cc1NC(=O)Nc1ccc2c(c1)CCN(C1CCC1)CC2` showed an IC50 of 810 nM.
With `CC(=O)Nc1cccc(-c2cnc(N)c3cc(-c4ccc5c(c4)OCO5)ccc23)c1` the IC50 was 490 nM.
In the case of `Cc1nc2c(s1)c(=O)cc(CCc1cccc(F)c1F)n2CC(=O)N(Cc1ccc(-c2ccc(C(F)(F)F)cc2)cc1)C1CCN(C(C)C)CC1`, the IC50 is reported as 770 nM.
With `CCCN1CC[C@@H](CCCc2ccnc3ccc(O)cc23)[C@@H](CC)C1` the IC50 was 890 nM.
`CCOc1c(CNCCCNc2cc(=O)c3ccccc3[nH]2)cc(I)cc1OC` gave an IC50 of 1170 nM.
`COc1ccc2nccc(NN=Cc3ccccc3Cl)c2c1` showed an IC50 of 660 nM.
Molecule `O=C(CCC1CCCCC1=O)c1ccccc1` (stereo not given) has an IC50 of 770 nM.
For `OCCN1CCN(Cc2cccc(-c3ccc(-c4nc5ccc(C(F)(F)F)cc5[nH]4)cc3)c2)CC1`, the IC50 was 560 nM.
In the case of `c1ccc(CCNCc2ccc(-c3ccc(CNCc4ccc5c(c4)OCO5)cc3)nc2)cc1`, the IC50 is reported as 1250 nM.
Work on `C=CCOC(=O)N1CCC(CNCc2cccc(-c3ccc(-c4nc5c(C)cccc5[nH]4)s3)c2)C1` (stereo not given) yielded an IC50 of 250 nM.
`O=C(Nc1ccccc1)OCCOc1ccc(CC2SC(=O)NC2=O)cc1` (stereo not given) was tested, and the IC50 was 370 nM.
In the case of `Cc1cccc(C(=O)Nc2ccnc(N(C)C3CCN(CC(C)C)CC3)c2)c1`, the IC50 is reported as 870 nM.
`CCOC(=O)c1c(CN2CCCC2)n(-c2ccccc2)c2cc(Br)c(O)cc12` showed an IC50 of 1010 nM.
Work on `Cc1cc(N[C@@H](CC(C)C)C(=O)NCc2cccs2)nc(NCCc2ccccc2)n1` yielded an IC50 of 1190 nM.
`O=C(/C=C/c1ccc(Cl)c(Cl)c1)NC1CCN(Cc2cccc(O)c2)CC1` was tested, and the IC50 was 880 nM.
With `Cc1ccc(Nc2nc(C)cc(NC3CC3)n2)cc1` the IC50 was 1220 nM.
With `OC(CNC12CC3CC(CC(C3)C1)C2)c1cccc(C(F)(F)F)c1` (stereo not given) the IC50 was 300 nM.
Work on `CCC1CN2CCc3cc(OC)c(OC)cc3C2CC1CC1NCCc2cc(OC)c(OC)cc21` (stereo not given) yielded an IC50 of 140 nM.
In the case of `CN(C)CCCn1cncc1-c1ccc2ncnc(Nc3ccc(OCc4ccccc4)cc3)c2c1`, the IC50 is reported as 520 nM.
Work on `OCC1CCN(Cc2cccc(-c3cccc(-c4nc5ccc(C(F)(F)F)cc5[nH]4)c3)c2)CC1` yielded an IC50 of 510 nM.
Molecule `O=C(C=Cc1ccc(Cl)c(Cl)c1)NCCCCCN1CCC(CCNC(=O)C(c2ccccc2)c2ccccc2)CC1` has an IC50 of 1010 nM.
Work on `O=C(NCc1cccc(CN2CCOCC2)c1)c1cc(Br)cc(N2CCN(c3ccncc3)CC2)c1` yielded an IC50 of 860 nM.
`CC(=O)N(C)c1cccc(CNc2cc(C)nc(Nc3ccc(C)cc3)n2)c1` was tested, and the IC50 was 1000 nM.
Work on `COc1cccc(O)c1CN1CCC2(CCCN(Cc3ccc(F)cc3)C2)C1` (stereo not given) yielded an IC50 of 870 nM.
With `Oc1ccc(CCNc2nc(N/N=C/C=C/c3ccc(Cl)cc3)nc(N3CCNCC3)n2)cc1` the IC50 was 780 nM.
With `O=C(NCCCCCN1CCC(c2c[nH]c3ccccc23)CC1)Nc1ccc(Cl)c(Cl)c1` the IC50 was 920 nM.
`CCCS(=O)(=O)N1CCC(CO)(Cc2ccccc2C(F)(F)F)CC1` showed an IC50 of 890 nM.
`Cc1onc(-c2c(Cl)cccc2Cl)c1C(=O)NC1=NC(C)(C)ON1c1ccccc1` showed an IC50 of 1070 nM.
`COC(=O)c1ccc2[nH]cc(C3CCN(CCC4CCN(C(=O)/C=C/c5ccc(Cl)c(Cl)c5)CC4)CC3)c2c1` showed an IC50 of 510 nM.
With `CNC(=O)c1ccccc1Nc1nc(Nc2cccnc2)ncc1C` the IC50 was 100 nM.
